The values below come from patent US9951226B2, “Compound based on cyanine scaffold for diagnosis sepsis by selectively detect glutathione” (EWHA UNIVERSITY—INDUSTRY COLLABORATION FOUNDATION, priority 2014, dated 2018).

Each structure is given as a SMILES string.

Assay [1] deals with neutrophils of peritoneal cells. Put plainly: Capacity of diagnosing sepsis: FACS of neutrophils of peritoneal cells from CLP sepsis mouse. Conditions: 8 hours, 10 μM compound. The format is cell-based. The protocol:
According to a reference (J Vis Exp. 2011 May 7; (51). pii: 2860. doi: 10.3791/2860), C57BL/6 mouse (7˜8 weeks old, female, Jackson Laboratory) was induced with sepsis by performing CLP (cecal ligation and puncture). 8 hours later, peritoneal cells were extracted from the mouse. The cells were centrifuged and reacted to the neutrophil marker Ly6G (eFluor®450, eBioscience, Cat No. 48-5931) and 10 μM of the compound prepared in Example 2 at room temperature. 25 minutes later, 1 mL of 3% fetal bovine serum (FBS) was added thereto, followed by centrifugation at 3000 rpm for 5 minutes to wash the cells. The cells were resuspended in […] of HEPES (4-(2-hydroxyethyl)piperazine-1-ethanesulfonic acid) buffer (10 mM, pH=7.4), followed by FACS (Fluorescence Activated Cell Sorting) using the data analysis software FlowJo to observe the peaks (The setting for Alexa flour 700 fluorescence was hired, BD FACSVerse™).

For the next assay, the system named is C57BL/6 mouse. The assay is described as follows: Detection of glutathione in a mouse model with acetaminophen (APAP), IVIS imaging. The format is in vivo. On the procedure: 200 μL of HEPES (4-(2-hydroxyethyl)piperazine-1-ethanesulfonic acid) buffer (10 mM, pH=7.4) containing 300 mg/kg of acetaminophen (APAP) known as a pain killer was administered to each C57BL/6 mouse (7˜8 weeks old, female, Jackson Laboratory) via intravenous injection. The said APAP works as a pain killer in vivo when administered at a proper dose, but when treated at over-dose, it can damage organs and also reduce in vivo glutathione. 20 minutes later, 200 μL of HEPES (4-(2-hydroxyethyl)piperazine-1-ethanesulfonic acid) buffer (10 mM, pH=7.4) containing 50 mM of the compound prepared in Example 2 was administered to the mouse via intravenous injection. 20 minutes later, the strength of fluorescence was observed by using the epifluorescence mode of In Vivo Imaging System (IVIS) spectrum (Caliper LifeSciences, USA) equipped with the filter having the wavelengths of 675 nm and 720 nm [the strength of fluorescence was measured by Living Image Software 4.3.1 (Caliper Life Sciences, USA)].

The subject of a further assay is RAW 264.7 cells. The assay is described as follows: Changes of glutathione concentration in the presence of an oxidant (peroxynitrite), RAW 264.7 cells. The format is cell-based. Particulars: for red fluorescence under confocal laser scanning microscope: 20 μM compound. The protocol:
RAW 264.7 cells (macrophage cell line, Korea Cell Line Bank) were cultured in RPMI 1640 (Roswell Park Memorial Institute) supplemented with 10% heat-inactivated fetal bovine serum (FBS), 100 U/mL penicillin, and 100 U/mL streptomycin in a 37° C. 5% CO2 incubator.
RAW 264.7 cells displaying the characteristics of generating ROS (Reactive Oxygen Species) or RNS (Reactive Nitrogen Species) were treated with 1 μg/mL of lipopolysaccharide (LPS) for 20 minutes, 50 ng/mL of interferon-γ for 16 hours, and 20 μM of phorbol 12-myristate 13-acetate (PMA) for 20 minutes in order to induce the generation of endogenous feroxynitrite having the characteristics of an oxidant. Then, the cells were seeded in 35-mm glass bottomed dishes at the density of 3×10^5 cells/dish in 1640 medium. 24 hours later, the compound prepared in Example 2 was treated thereto at the concentration of 20 μM for 20 minutes. The cells were washed with DPBS (Dulbecco's Phosphate Buffered Saline) three times, followed by imaging with confocal laser scanning microscope (Fluoview 1200, Olympus, Japan). At this time, the emitting filter with the excitation wavelength of 635 nm and the band-path (BP) of 655˜755 nm was used.

A short description of assay [2]: Absorption and fluorescence spectrum according to the concentration of glutathione. The format is biochemical. On the procedure:
10 μM of the compound prepared in Example 2 and glutathione were added to HEPES (4-(2-hydroxyethyl)piperazine-1-ethanesulfonic acid) buffer (10 mM, pH=7.4) containing 10% dimethylsulfoxide (DMSO) with raising slowly the concentration of glutathione from 0 to 50 μM, during which the changes of absorption spectrum were observed using UV-vis sepctra (Scinco 3000 spectrophotometer, 1 cm quartz cell) at 25° C.
The following experiment was performed by the same manner as described in Experimental Example <4-1> except that fluorescence spectrum was observed by using RF-5310/PC fluorescence spectrometer (Shimada, 1 cm quartz cell) instead of observing absorption spectrum via UV-vis sepctra (Scinco 3000 spectrophotometer, 1 cm quartz cell) (λex=730 nm, λem=736 nm, slit:10/10 nm).
10 μM of the compound prepared in Example 3 and glutathione were added to HEPES (4-(2-hydroxyethyl)piperazine-1-ethanesulfonic acid) buffer (10 mM, pH=7.4) containing 10% dimethylsulfoxide (DMSO) with raising slowly the concentration of glutathione from 0 to 100 μM, during which the changes of absorption spectrum were observed using UV-vis sepctra (Scinco 3000 spectrophotometer, 1 cm quartz cell) at 25° C.
The following experiment was performed by the same manner as described in Experimental Example <16-1> except that fluorescence spectrum was observed by using RF-5310/PC fluorescence spectrometer (Shimada, 1 cm quartz cell) instead of observing absorption spectrum via UV-vis sepctra (Scinco 3000 spectrophotometer, 1 cm quartz cell) (λex=730 nm, λem=736 nm, slit:10/10 nm).

Another assay has as its system neutrophils. The assay is described as follows: Capacity of diagnosing sepsis: bone marrow neutrophils infected with GFP tagged Pseudomonas Aeruginosa 01 (PA01). The format is cell-based, mouse. The protocol: Neutrophils were extracted from the bone marrow of C57BL/6 mouse (7˜8 weeks old, female, Jackson Laboratory). The cells were infected with green fluorescent protein (GFP) tagged Pseudomonas Aeruginosa 01 (PA01) that is the causing bacteria of sepsis. 24 hours later, 10 μM of the compound prepared in Example 2 was added thereto, followed by reaction at 37° C. for 20 minutes. At this time, the emitting filter with the excitation wavelength of 635 nm and the band-path (BP) of 655˜755 nm was used.

Where [3] appears, read: 10 μM compound, glutathione not added.
The mark [4] stands for this setting: 10 μM compound, glutathione raised from 0 to 50 μM.

On to `CCCN1/C(=C/C=C2\CCCC(/C=C/C3=[N+](CCC)c4ccccc4C3(C)C)=C2N2CCN(S(=O)(=O)c3cccc4c(N(C)C)cccc34)CC2)C(C)(C)c2ccccc21.[I-]` [Example 2, 2-((E)-2-((E)-3-((E)-2-(3,3-dimethyl-1-propylindolin-2-ylidene)ethylidene)-2-(4-(5-(dimethylamino)naphthalene-1-ylsulfonyl)piperazine-1-yl)cyclohex-1-enyl)binyl)-3,3-dimethyl-1-propyl-3H-indolium iodide], for which the “glutathione level in neutrophils detected by the compound (FACS), sepsis mouse compared with normal mouse” value in assay [1] is “reduced”. The “red fluorescence of the mouse, IVIS spectrum” value in the assay on C57BL/6 mouse (mouse treated with acetaminophen (APAP) 300 mg/kg together with the compound) is recorded as “red fluorescence was not observed”; with C57BL/6 mouse (mouse treated with the compound alone, intravenous injection, 20 minutes), “strong red fluorescence was observed”. The “red fluorescence in liver, kidney, lung, and spleen, IVIS spectrum” value is reported as “red fluorescence was not observed” with C57BL/6 mouse (mouse treated with acetaminophen (APAP) together with the compound) and “strong red fluorescence was observed” with C57BL/6 mouse (mouse treated with the compound alone). For the same molecule, the “red fluorescence under confocal laser scanning microscope” value is “red fluorescence was not observed” with RAW 264.7 cells (RAW 264.7 cells with induced peroxynitrite (LPS, interferon-γ, PMA)) and “strong red fluorescence” in the assay on RAW 264.7 cells (RAW 264.7 cells, 20 minutes). In addition, the “reaction to oxidized glutathione, glutathione disulfide (GSSG)” value with RAW 264.7 cells (RAW 264.7 cells, peroxynitrite) is given as “did not react”. For the same molecule, in assay [2] (setting [3]), the “absorption strength at 750 nm” value is on record as “weak absorption strength”. Further, the “fluorescence signal at 736 nm” value is recorded as “weak fluorescence signal” in assay [2] (setting [3]) and “getting stronger” in assay [2] (setting [4]). Also, the “absorption signal at 750 nm” value in assay [2] (setting [4]) was “getting stronger”. In assay [2] (conclusion from absorption and fluorescence spectra), the “dependence of the reaction on glutathione concentration” value is reported as “glutathione dose-dependent”. The “red fluorescence indicating glutathione level in the red fluorescence channel” value in the assay on neutrophils (neutrophils infected with GFP tagged PA01, 10 μM compound) is reported as “reduced”. Further, in the assay on neutrophils (neutrophils not-infected with GFP tagged PA01, 10 μM compound), the “red fluorescence in the red fluorescent channel” value is “strong red fluorescence was detected”.
